Data published in PMC4913266, “Crystal structure of MytiLec, a galactose-binding lectin from the mussel Mytilus galloprovincialis with cytotoxicity against certain cancer cell types” (Scientific Reports, 2016).
pKd: −log10 of the molar value. Each block holds one compound with its values, some of them ahead of it.

Legend:
[1] = molecular target: T1, MytiLec (Mytilus galloprovincialis, UniProt B3EWR1, T39A); experiment: ITC, single-site model; crystal structure […] Å; format: binding; conditions: 10 mM HEPES pH 7.4, 100 mM NaCl, 298 K; averaged over three sites per monomer (one type of independent site); crystal shows alpha anomer at all six sites of the dimer
T1 construct: full-length from codon-optimised synthetic gene, initial Thr changed to Ala; N-terminal His6 tag cut by thrombin, product begins GSHMATF; E. coli BL21(DE3) RILP; homodimer 34 kDa

[2] = molecular target: T1, MytiLec; experiment: ITC, single-site model; format: binding; conditions: 10 mM HEPES pH 7.4, 100 mM NaCl, 298 K; averaged over three sites per monomer (one type of independent site)
[3] = molecular target: MytiLec(F93DF94S) (Mytilus galloprovincialis)
[4] = molecular target: Recombinant MytiLec (Mytilus galloprovincialis); experiment: AUC; sedimentation velocity, 50 mM potassium phosphate pH 7.4, 0.1 M NaCl, 293 K, 50,000 rpm, absorbance at 280 nm, c(s) converted to c(M); wild-type protein

T1 sequence (B3EWR1 39-187 T39A): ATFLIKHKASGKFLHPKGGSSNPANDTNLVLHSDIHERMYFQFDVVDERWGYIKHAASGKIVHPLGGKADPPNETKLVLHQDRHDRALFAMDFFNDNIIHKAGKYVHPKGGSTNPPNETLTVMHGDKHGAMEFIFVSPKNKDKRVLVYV

pKd [1]: 3.89
Compound: CC(=O)N[C@H]1C(O)O[C@H](CO)[C@H](O)[C@@H]1O (stereo partly shown) [GalNAc]

pKd [2]: 3.70
Compound: OC[C@H]1OC(O)[C@H](O)[C@@H](O)[C@H]1O (stereo partly shown) [galactose]

Compound: MytiLec(F93DF94S) (natural protein)
haemagglutination activity on rabbit erythrocytes, monomer mutant against the dimer (times less than the dimer) [3]: 10

stoichiometry N [4]: 2
Compound: Recombinant MytiLec (natural protein)
